SMILES strings stand for the structures. Structures can show the parent of a compound that is named as a salt.

Our source for the IC50 values is patent US9458153B2, “Dihydroquinolizinones for the treatment and prophylaxis of hepatitis B virus infection” (Hoffmann-La Roche Inc., priority 2014, dated 2016).

In one experiment the test system is HBsAg. In words: HBsAg assay (chemiluminescence immunoassay of secreted HBsAg in HepG2.2.15 culture supernatant). It is filed as cell-based, HBV. As to conditions: HBsAg secretion reduced by 50% vs no drug control; HepG2.2.15 cells; CLIA kit. Put shortly:
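IC50 came from dose-response curves of HBsAg in culture supernatant, measured semi-quantitatively by chemiluminescent immunoassay. The HBV-producing HepG2.2.15 line was dosed in duplicate with a three-fold compound dilution series, with DMSO at 1% final and DMSO alone as the no-drug control.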
By IC50 is commonly meant the point on the concentration scale where inhibition reaches its midpoint. A lower IC50 goes with greater potency in that assay. `COc1cc2c(cc1OCCCCCCCCNC(=O)OC(C)(C)C)CC(C(C)(C)C)n1cc(C(=O)O)c(=O)cc1-2` (single isomer, unassigned; (-)) [Example 169, (−)-9-[8-(tert-butoxycarbonylamino)octoxy]-6-tert-butyl-10-methoxy-2-oxo-6,7-dihydrobenzo[a]quinolizine-3-carboxylic acid] showed an IC50 of 190 nM.

The molecule `COc1cc2c(cc1OCCCSC)CC(C(C)(C)C)n1cc(C(=O)O)c(=O)cc1-2` (single isomer, unassigned; (-)) [Example 185, (−)-6-tert-butyl-10-methoxy-9-(3-methylsulfanylpropoxy)-2-oxo-6,7-dihydrobenzo[a]quinolizine-3-carboxylic acid] came in with a half-maximal inhibitory concentration (IC50) of 55 nM.

`COc1cc2c(cc1OCCCS(C)(=O)=O)CC(C(C)(C)C)n1cc(C(=O)O)c(=O)cc1-2` (single isomer, unassigned; (-)) [Example 188, (−)-6-tert-butyl-10-methoxy-9-(3-methylsulfonylpropoxy)-2-oxo-6,7-dihydrobenzo[a]quinolizine-3-carboxylic acid] returned an IC50 of 220 nM.

`COc1cc2c(cc1OCCN1CCOCC1)CC(C(C)(C)C)n1cc(C(=O)O)c(=O)cc1-2` (single isomer, unassigned; (-)) [Example 191, (−)-6-tert-butyl-10-methoxy-9-(2-morpholinoethoxy)-2-oxo-6,7-dihydrobenzo[a]quinolizine-3-carboxylic acid] gave an IC50 of 190 nM.

On to `COc1cc2c(cc1OCCCN1CCOCC1)CC(C(C)(C)C)n1cc(C(=O)O)c(=O)cc1-2` (single isomer, unassigned; (-)) [Example 194, (−)-6-tert-butyl-10-methoxy-9-(3-morpholinopropoxy)-2-oxo-6,7-dihydrobenzo[a]quinolizine-3-carboxylic acid], for which the IC50 was 270 nM.

As to `COCCCOc1cc2c(cc1OC)-c1cc(=O)c(C(=O)O)cn1C(CC(F)(F)F)C2` (single isomer, unassigned; (-)) [Example 201, (−)-10-methoxy-9-(3-methoxypropoxy)-2-oxo-6-(2,2,2-trifluoroethyl)-6,7-dihydrobenzo[a]quinolizine-3-carboxylic acid], the half-inhibitory concentration (IC50) stood at 14200 nM.

Molecule `COCCCOc1cc2c(cc1Cl)-c1cc(=O)c(C(=O)O)cn1C(C(C)(C)C)C2` (single isomer, unassigned; (-)) [Example 204, (−)-6-tert-butyl-10-chloro-9-(3-methoxypropoxy)-2-oxo-6,7-dihydrobenzo[a]quinolizine-3-carboxylic acid] showed a 50% inhibitory concentration (IC50) of 140 nM.

As for `COCCCOc1cc2c(cc1Cl)-c1cc(=O)c(C(=O)O)cn1C(C1(C)CC1)C2` (single isomer, unassigned; (-)) [Example 207, (−)-10-chloro-9-(3-methoxypropoxy)-6-(1-methylcyclopropyl)-2-oxo-6,7-dihydrobenzo[a]quinolizine-3-carboxylic acid], the IC50 was 40 nM.

As for `COCCCOc1cc2c(cc1OC)-c1cc(=O)c(C(=O)O)cn1C(C1(C)CC1)C2` (single isomer, unassigned; (-)) [Example 210, (−)-10-methoxy-9-(3-methoxypropoxy)-6-(1-methylcyclopropyl)-2-oxo-6,7-dihydrobenzo[a]quinolizine-3-carboxylic acid], the IC50 was determined as 92 nM.

As to `COCCCOc1cc2c(c(F)c1F)-c1cc(=O)c(C(=O)O)cn1C(C(C)C)C2` (single isomer, unassigned; (-)) [Example 215, (−)-10,11-difluoro-6-isopropyl-9-(3-methoxypropoxy)-2-oxo-6,7-dihydrobenzo[a]quinolizine-3-carboxylic acid], the half-inhibitory concentration (IC50) is 1140 nM.

Consider `CCC1Cc2cc(OCc3ccccc3)c(OC)cc2-c2cc(=O)c(C(=O)O)cn21` (centres unmarked) [Example 8, 9-benzyloxy-6-ethyl-10-methoxy-2-oxo-6,7-dihydrobenzo[a]quinolizine-3-carboxylic acid], for which the IC50 was 150 nM.

The experiment is the same for the next values; noted with them: HBsAg secretion reduced by 50% vs no drug control; HepG2.2.15 cells; CLIA kit; hydrochloride.
Turning to `COc1cc2c(cc1OCCCCCCCCN)CC(C(C)(C)C)n1cc(C(=O)O)c(=O)cc1-2` (single isomer, unassigned; (-)) [Example 171, (−)-9-(8-aminooctoxy)-6-tert-butyl-10-methoxy-2-oxo-6,7-dihydrobenzo[a]quinolizine-3-carboxylic acid hydrochloride], the concentration for half-maximal inhibition (IC50) was 420 nM.

In turn, `COc1cc2c(cc1OCCCCCN)CC(C(C)(C)C)n1cc(C(=O)O)c(=O)cc1-2` (single isomer, unassigned; (-)) [Example 174, (−)-9-(5-aminopentoxy)-6-tert-butyl-10-methoxy-2-oxo-6,7-dihydrobenzo[a]quinolizine-3-carboxylic acid hydrochloride] yielded an IC50 of 2420 nM.

The same experiment, now with this note: Hepatitis B virus, HepG2.2.15, HBsAg secretion reduced by 50% vs no drug control; HepG2.2.15 cells; CLIA kit.
As for `COc1cc2c(cc1OCc1ccccc1)CC(C)n1cc(C(=O)O)c(=O)cc1-2` (centres unmarked) [Example 1, 9-benzyloxy-10-methoxy-6-methyl-2-oxo-6,7-dihydrobenzo[a]quinolizine-3-carboxylic acid], the IC50 worked out at 13 nM.

Molecule `CCOc1cc2c(cc1OC)-c1cc(=O)c(C(=O)O)cn1C(C)C2` (centres unmarked) [Example 4, 9-ethoxy-10-methoxy-6-methyl-2-oxo-6,7-dihydrobenzo[a]quinolizine-3-carboxylic acid] registered an IC50 of 98 nM.

For the molecule `CCC1Cc2cc(OCCc3ccccc3)c(OC)cc2-c2cc(=O)c(C(=O)O)cn21` (centres unmarked) [Example 14, 6-ethyl-10-methoxy-2-oxo-9-(2-phenylethoxy)-6,7-dihydrobenzo[a]quinolizine-3-carboxylic acid], the IC50 was 14 nM.

`CCCCOc1cc2c(cc1OC)-c1cc(=O)c(C(=O)O)cn1C(CC)C2` (centres unmarked) [Example 15, 9-butoxy-6-ethyl-10-methoxy-2-oxo-6,7-dihydrobenzo[a]quinolizine-3-carboxylic acid] had a half-inhibitory concentration (IC50) of 16 nM.

`CCC1Cc2cc(OCCC3CCCCC3)c(OC)cc2-c2cc(=O)c(C(=O)O)cn21` (centres unmarked) [Example 16, 9-(2-cyclohexylethoxy)-6-ethyl-10-methoxy-2-oxo-6,7-dihydrobenzo[a]quinolizine-3-carboxylic acid] came in with an IC50 of 15 nM.

`C#CCOc1cc2c(cc1OC)-c1cc(=O)c(C(=O)O)cn1C(CC)C2` (centres unmarked) [Example 17, 6-ethyl-10-methoxy-2-oxo-9-prop-2-ynoxy-6,7-dihydrobenzo[a]quinolizine-3-carboxylic acid] had an IC50 of 190 nM.

In turn, `CCC1Cc2cc(OCC(=O)N3CCCC3)c(OC)cc2-c2cc(=O)c(C(=O)O)cn21` (centres unmarked) [Example 18, 6-ethyl-10-methoxy-2-oxo-9-(2-oxo-2-pyrrolidin-1-yl-ethoxy)-6,7-dihydrobenzo[a]quinolizine-3-carboxylic acid] showed an IC50 of 9470 nM.

`CCC1Cc2cc(OCCOCCOC)c(OC)cc2-c2cc(=O)c(C(=O)O)cn21` (centres unmarked) [Example 19, 6-ethyl-10-methoxy-9-[2-(2-methoxyethoxyl)ethoxy]-2-oxo-6,7-dihydrobenzo[a]quinolizine-3-carboxylic acid] gave a half-inhibitory concentration (IC50) of 250 nM.

In turn, `CCC1Cc2cc(OCCN3CCOCC3)c(OC)cc2-c2cc(=O)c(C(=O)O)cn21` (centres unmarked) [Example 20, 6-ethyl-10-methoxy-9-(2-morpholinoethoxy)-2-oxo-6,7-dihydrobenzo[a]quinolizine-3-carboxylic acid] yielded a half-maximal inhibitory concentration (IC50) of 220 nM.

In the case of `CCC1Cc2cc(OCCO)c(OC)cc2-c2cc(=O)c(C(=O)O)cn21` (centres unmarked) [Example 21, 6-ethyl-9-(2-hydroxyethoxy)-10-methoxy-2-oxo-6,7-dihydrobenzo[a]quinolizine-3-carboxylic acid], it took 450 nM to reach half-maximal inhibition (IC50).
